Source: PMC8704389, “New Insights into the Hypotensins from Tityus serrulatus Venom: Pro-Inflammatory and Vasopeptidases Modulation Activities” (Toxins, 2021)
No end group written: not given here.

How the values were obtained:
NEP = test: Modulation of NEP activity, FRET substrate Abz-RGFK(Dnp)-OH; type: biochemical, human; conditions: 10 µM peptide, 1.5 ng NEP, Abz-RGFK(Dnp)-OH (3.5 µM in method, 10 µM in table note), Tris HCl 50 mM, pH 7.5, 37 °C, 15 min, fluorescence 320/420 nm, triplicate
Procedure: The results were obtained by incubating the enzymes with their FRET substrates (10 µM) in a final volume of 100 µL. For the ACE assays, the used buffer was Tris HCl 100 mM, NaCl 50 mM and ZnCl2 10 µM, pH 7.0. For NEP, the assays were made in Tris HCl 50 mM, pH 7.5 buffer. All reactions occurred at 37 °C, in a Victor 3 fluorimeter (Perkin–Elmer) adjusted for excitation and emission readings at 320 and 420 nm, respectively, for 15 min (one reader per minute). Results were obtained in triplicate and analyzed on GraFit 5 software.
For ACE assays, 10 µM of each peptide was incubated with 3.0 ng of peptidase and 10 µM of Abz-FRK (Dnp) P-OH substrate, in Tris HCl 100 mM, NaCl 50 mM and ZnCl2 10 µM, pH 7.0 buffer. For NEP, 10 µM of TsHpt-I or -II was incubated with 1.5 ng of peptidase, 3.5 µM Abz-RGFK (Dnp)-OH in Tris HCl 50 mM, pH 7.5 buffer. All reactions occurred at 37 °C, in a final volume of 100 µL, in a Victor 3 fluorimeter (Perkin–Elmer, Waltham, MA, USA) adjusted for excitation and emission readings at 320 and 420 nm, respectively, for 15 min (one reader per minute). Results were obtained in triplicate and analyzed using GraFit 5 (Erithacus software, East Grinstead, West Sussex, UK).

[1] = tested on: murine peritoneal macrophages; test: Cell viability of murine peritoneal macrophages, MTT method; type: cell-based, BALB/c mice; conditions: 24 h
Procedure: Figure 3 Cytotoxic effect of hypotensins I and II on murine peritoneal macrophages in vitro. Peritoneal exudate macrophages from naïve BALB/c mice were cultured for 24 h in the presence of TsHpt-I (A) and -II (B) at concentrations of 10 µg/mL, 50 µg/mL and 100 µg/mL. Cells cultured with medium alone or in the presence of 5 µg/mL LPS were used as the controls. Cell viability was determined by the MTT method. The results represent the mean ± SD of two independent experiments performed in triplicate. * p < 0.05.
Peritoneal exudate cells (BALB/c naïve mice, n = 6) were collected by two washes with 5 mL of RPMI medium. The cells obtained were washed twice with RMPI medium, at 400 g, for 10 min, at 18 °C, and resuspended in R10 medium (RPMI + 10% fetal cow serum). After counting in a Neubauer chamber, in the presence of Trypan blue, the cell concentration was adjusted to 2 × 10^6 cells/mL. Cells were distributed into 96-well culture plates (2 × 10^5 cells/100 µL/well) and incubated for 2 h at 37 °C and 5% CO2. After incubation, non-adherent cells were discarded, and adherent cells (macrophages) were resuspended in R10 medium containing the respective tested stimuli, at different concentrations, in triplicates, in a final volume of 200 µL/well. Cells resuspended in R10 medium were used as a negative control, and cells stimulated with LPS (5 µg/mL) as a positive control. Cells were then incubated for 24 h at 37 °C and 5% CO2. After this period, the culture supernatants were collected and stored at −80 °C, for subsequent dosage of cytokines, and cell viability was determined by MTT assay.
After a 24-h period of incubation of cells with hypotensins (10 µg/mL, 50 µg/mL and 100 µg/mL), MTT assays were performed, consisting of the addition of 100 µL of R10 containing 0.5 mg/mL of tetrazolium salt 3-(4.5-dimethylthiazol-2-yl)-2,5-diphenyltetrazolium bromide (MTT) in all wells, followed by a new incubation, under the same conditions, for 4 h. Then, the supernatants were discarded, and 100 µL/well of DMSO were added to dissolve the formed crystals. Absorbance was determined in a spectrophotometer at 540 nm. Cell viability was calculated based on the absorbances of the samples and the negative control (cells cultivated only with R10).

[2] = 10 µg/mL, control (medium) = 100%, two independent experiments in triplicate

Row | Sequence | NEP Inhibition (%) (NEP) | cell viability [1, 2] | cell viability ([1]; 100 µg/mL)
1 | AEIDFSGIPEDIIKEIKETNAKPPA [TsHpt-II] | 11 | about 75% | not able to decrease cellular viability
2 | AEIDFSGIPEDIIKQIKETNAKPPA [TsHpt-I] | 75 | about 75% | not able to decrease cellular viability
